According to patent publication EP0530446A2, “Use of sulfur containing carboxylic acids for combatting pathophysiologic excitatory disorders and related diseases as well as allergic diseases and their preparation as medicament” (ASTA Medica Aktiengesellschaft, priority 1991, dated 1993):

Tests used:
[1] = system: PAF (Platelet-activating-Factor)-Acether-Ödem; assay: PAF-acether paw oedema in the rat; assay type: in vivo, Ratte; details: 0.5 h before PAF-acether 2 ug/animal subplantar, oedema read 1 h later
Procedure: Die antiallergische Wirkung wird unter anderem durch Untersuchungen im PAF (Platelet-activating-Factor)-Acether-Ödem an der Ratte belegt.
Prinzip der Methode ist es, durch subplantare Injektion von PAF-Acether 2 ug/Tier ein lokal begrenztes Ödem beziehungsweise eine Entzündung an der Rattenpfote zu erzeugen. Die Untersuchungen werden in Anlehnung an die Methode nach SWINGLE und REITER (Agents and actions, 18, 358-365, (1986)) durchgeführt. Die Tiere erhalten die Prüfsubstanzen 0,5 Stunden vor der Auslösung des Ödems verabreicht. 1 Stunde danach wird das Ödem plethysmographisch ermittelt.

EEG der Ratte = assay: Tele-Stereo-EEG in the rat: prevention of EEG changes caused by hypoglycaemic or ischaemic insult; assay type: in vivo; details: 30 mg/kg i.p., compared with pre-dose value (Vorwert)
Procedure: Die erfindungsgemäßen Verbindungen der Formel zeigen beispielsweise im Modell zum Nachweis der Prevention der durch hypoglykämischen beziehungsweise ischämischen Insult verursachte Veränderungen im EEG der Ratte (im Vergleich zum Vorwert) bei der parenteralen Applikation (i.p. = intraperitoneal) bei 30 mg/kg (i.p.) des Racemats der alpha-Liponsäure 118 %, bei 30 mg/kg i.p. des (+)-Enantiomers 157 % und bei 30 mg/kg i.p. des (-)-Enantiomers 85 % Änderung der Leistungsdichte des beta-2-Bandes im frontalen Kortex.
Diese Untersuchung erfolgte analog der Methode Dimpfel et al, Neuropsychobiology 16: 163 - 168, (1986) mit der Änderung, daß die Ableitung vom Hippokampus anstelle des Thalamus erfolgt. (Radioelectroencephalography (Tele-Stereo-EEG) in the rat as a pharmacological model to differentiate the central action of flupirtine from that of opiates, diazepam and phenobarbital)
Männliche Fischer-344 Ratten wurden im Alter von 4 bis 5 Monaten 4 bipolar konzentrische Elektroden zusammen mit einem Mikrostecker auf einer gemeinsamen Basisplatte implantiert. Der Stecker diente der Aufnahme eines 4-Kanal-Senders zur telemetrischen Übertragung der aus frontalem Kortex, Hippokampus, Striatum und Formatio Reticularis abgeleiteten Feldpotentiale. Die Signale wurden auf einem Pro Science Computer System in Echtzeit einer Fast Fourier Transformation unterworfen und die Leistungsdichtespektren jeweils über 15 Minuten gemittelt. Die Unterteilung der Spektren in 6 verschiedene Frequenzbereiche erlaubte die Erfassung pharmakonspezifischer Veränderungen in Bezug auf die jeweils vor der Applikation gemessenen Vorwerte innerhalb dieser Frequenzbänder.
Zum Applikationsprotokoll der Substanzen: Die Substanzen wurden intraperitoneal 45 Minuten nach Beginn der Messungen (Vorwert) injiziert. Fünf Minuten später wurden die Messungen wieder gestartet, mindestens über die nächsten 2 Stunden kontinuierlich analysiert und in 15-minütigen Perioden zusammengefaßt. Die Testsubstanzen (zum Beispiel Thioctsäure) wurden in einer Dosierung von 30 mg/kg appliziert. […]

[2] = system: Hippocampusschnitt-Präparat von morphiumabhängigen Ratten; assay: Hippocampal slice preparation of morphine-dependent rats after 16 h withdrawal, excitability at decreasing Mg++; details: slices 16 h after morphine withdrawal (2 mg/kg s.c. twice daily for 2 weeks), tested at 100 µM
Procedure: Die bei Ratten 16 Stunden nach dem Entzug von Morphium (2 mg/kg Morphium subcutan, 2 x täglich über 2 Wochen lang) aus dem Hippocampus entnommenen Präparate wurden abnehmenden Magnesiumkonzentrationen im Superfusionsmedium ausgesetzt, um Platizitätsveränderungen bei der Erregbarkeit der Pyramidenzellen nachweisen zu können. Die elektrisch ausgelösten und spontanen Entladungen wurden in Abwesenheit und Gegenwart der S(-)-Form der a-Liponsäure beobachtet. […] Hierdurch ergibt sich eine Anwendung/Verwendung von a-Liponsäure bei Entziehungserscheinungen bei Drogenabhängigkeit.
Zwei Gruppen ausewachsener, männlicher CD-Ratten (Charles River Wiga) erhielten handelübliches Rattenfutter ad libitum. In den beiden Versuchwochen erhielten die Tiere der ersten Gruppe zweimal täglich 2 mg/kg Morphium. Der Kontrollgruppe wurde Kochsalzlösung injiziert. Das Körpergewicht wurde täglich registriert. 16 Stunden vor Beginn der Messung der Erregbarkeit ex vivo erhielten die mit Morphium behandelten Tiere keine Injektion mehr, um den Entzug einzleiten.
Die Tiere wurden in leichter Narkose ausgeblutet, das Gehirn wurde in toto entnommen und die Formatio hippocampi unter stereomikroskopischer Kontrolle isoliert. […]

[3] = system: Hippocampusschnitt-Präparat von ethanolabhängigen Ratten; assay: Hippocampal slice preparation of ethanol-dependent rats after 16 h withdrawal, excitability at decreasing Mg++; details: slices 16 h after ethanol withdrawal (5 g/kg/day for 2 weeks), tested at 246 pg/ml
Excerpt: Die bei Ratten 16 Stunden nach dem Absetzen von Ethanol (5 g/kg/Tag Ethanol über einen Zeitraum von 2 Wochen) aus dem Hippocampus entnommenen Präparate wurden abnehmenden Magnesiumkonzentrationen im Superfusionsmedium ausgesetzt, um Plasizitätsveränderungen bei der Erregbarkeit der Pyramidenzellen nachweisen zu können. Die elektrisch ausgelösten und spontanen Entladungen wurden in Abwesenheit und Gegenwart der S(-)-Form der a-Liponsäure beobachtet.
Zwei Gruppen ausgewachsener, männlicher CD-Ratten (Charles River Wiga) erhielten handelsübliches Rattenfutter ad libitum. Das Trinkwasser wurde durch den Zusatz von 1 g Glukose/Liter gesüßt. Eine der Gruppen erhielt Wasser, das 5 % Ethanol enthielt. Die von den Tieren aufgenommene Wassermenge wurde täglich bestimmt und betrug in beiden Gruppen durchschnittlich 40 ml. Folglich nahm die Ethanolgruppe während des zweiwöchigen Versuches - ausgehend von ihrem durchschnittlichen Gewicht - innerhalb von 24 Stunden etwa 5 g/kg Ethanol auf.
Den Tieren wurde das modifizierte Trinkwasser über einen Zeitraum von 2 Wochen verabreicht. Außerdem wurde das Körpergewicht täglich ermittelt, wobei zwischen den beiden Gruppen keine Differenz beobachtet werden konnte. 16 Stunden vor Beginn der Messung der Erregbarkeit ex vivo erhielten die mit dem Ethanol behandelten Tiere ebenfalls glukosehaltiges Trinkwasser, um den Entzug einzuleiten. […]

| Compound | Ödemhemmung in % ([1]; 25 mg/kg intraperitoneal) [%] | Ödemhemmung in % ([1]; 50 mg/kg intraperitoneal) [%] | Änderung der Leistungsdichte des beta-2-Bandes im frontalen Kortex (EEG der Ratte) [%] | spontane Entladungen ([2]; decreasing Mg++) | Spitzenamplituden der Population ([2]; lower Mg++ concentrations) | ausgelöste Entladungen [3] | Ödemhemmung in % ([1]; 200 mg/kg intraperitoneal) [%] |
| --- | --- | --- | --- | --- | --- | --- | --- |
| O=C(O)CCCCC1CCSS1 (racemic) [α-Liponsäure, reference compound] | 14 | 16 | 118 | – | – | – | – |
| O=C(O)CCCC[C@@H]1CCSS1 [(+)-Enantiomers, R(+)-a-Liponsäure] | – | – | 157 | – | – | – | – |
| O=C(O)CCCC[C@H]1CCSS1 [(-)-Enantiomers, S(-)-a-Liponsäure] | – | – | 85 | abzuschwächen | auf Normalwerte zu senken | vollständige Dämpfung | – |
| O=C(O)CCCCC(S)CCS (stereo not shown) [Dihydroliponsäure, 6,8-Dimercapto-octansäure] | – | 63 | – | – | – | – | 73 |
